Source: patent US11584713B2, “25-hydroxycholecalciferol monohydrate crystal, preparation method therefor and microemulsion using same” (SHANDONG HAINENG BIOENGINEERING CO., LTD., priority 2018, dated 2023)

Key:
[1] = Stability test, left open at 25° C., content of 25-hydroxycholecalciferol by HPLC; assay type: physicochemical; conditions: for Content of 25-hydroxycholecalciferol: left open at 25° C.
Procedure: 6. Stability Test the 25-hydroxycholecalciferol monohydrate crystal prepared in the present embodiment was left open at 25° C., and a content of 25-hydroxycholecalciferol contained therein was tested after one month, three months and six months respectively, and meanwhile, 25-hydroxycholecalciferol was used as a control example, and the results were shown in Table 2. The content of 25-hydroxycholecalciferol was measured by the following method: taking a sample to prepare a solution of about 10 μg/mL, injecting 20 μL for a HPLC analysis, and calculating the content thereof according to an external standard method. Test conditions of the HPLC were as follows: chromatographic column: C18 column; internal diameter: 4.6 mm; length: 150 mm, particle size: 5 μm; detection wavelength: 265 nm; temperature of column: 30° C.; flow rate: 1.5 mL/min (which may be adjusted according to desired retention time and a degree of separation of 25-hydroxycholecalciferol and a 25-hydroxycholecalciferol precursor); injection volume: 20 uL; and recording time: 2 times the retention time of main peak.

[2] = cited from earlier work

SMILES	Loss of 25-hydroxycholecalciferol (in words) ([1]; after six months of being left open at 25° C.)	Content of 25-hydroxycholecalciferol ([1]; 0 day) [%]	Content of 25-hydroxycholecalciferol ([1]; one month) [%]	Content of 25-hydroxycholecalciferol ([1]; six months) [%]	Content of 25-hydroxycholecalciferol ([1]; three months) [%]	solubility in diethyl ether ([2]; diethyl ether)	solubility in dimethyl sulfoxide ([2]; dimethyl sulfoxide)	solubility in ethanol ([2]; ethanol)	solubility in methanol ([2]; methanol)	solubility in water ([2]; water)
C=C1CC[C@H](O)C/C1=C/C=C1\CCC[C@]2(C)[C@@H]([C@H](C)CCCC(C)(C)O)CC[C@@H]12 [25-hydroxycholecalciferol monohydrate]	almost no loss	99.60	99.05	96.59	98.46					
C=C1CC[C@H](O)C/C1=C/C=C1\CCC[C@]2(C)[C@@H]([C@H](C)CCCC(C)(C)O)CC[C@@H]12 [25-hydroxycholecalciferol]		99.23	65.03	29.61	47.65	slightly soluble	easily soluble	easily soluble	easily soluble	almost insoluble
